Assay results: patent publication US8772265B2, “Water soluble curcumin compositions for use in anti-cancer and anti-inflammatory therapy” (Universite Libre de Bruxelles, priority 2008, dated 2014)
In brackets after ≈: the same amount, converted by molar mass. Where two headings read alike, the source gives them in different places. One block for each molecule: values may come before it.

Key:
PC3 [1] = experiment: Cellular imaging (phase-contrast videomicroscopy), PC3; assay type: cell-based, human; set-up: key to effect on cell morphology / effect on cell migration: +++: high effect: cell migration of most cells is drastically altered for most of the duration of the film; ++: medium effect: compound altering cell migration of an important proportion of the cells although less drastically; +: low effect: compound affecting cell migration of a small part of the cell population, or only for a limited part of the 72 h incubation; −: no effect: as compared to the control conditions, no difference is observed; conditions: PC3, 10 μM; for GGRtreated/GGRcontrol: 72 h, global growth ratio; for effect on cell morphology: characterized by the same way as migration
Experimental: (§1) Cellular imaging relied on the use of computer-assisted phase-contrast microscopy making possible to film the behavior of living cells in culture dishes for several days. […] The experiment was conducted in quadruplicates. The behaviour of the cells, in terms of morphology, growth/death and migration were thus investigated. The analysis of the films was performed by two operators, working independently. The effect on cell migration was characterized as +++ (high effect: cell migration of most cells is drastically altered for most of the duration of the film), ++ (medium effect: compound altering cell migration of an important proportion of the cells although less drastically), + (low effect: compound affecting cell migration of a small part of the cell population, or only for a limited part of the 72 h incubation), - (no effect: as compared to the control conditions, no difference is observed). The effect on cell morphology was characterized by the same way. The effect on the overall growth was measured by counting the number of cells on the first (0 h) and the last image (72 h) of each film. The global growth ratio (GGR) was then deduced by dividing the number of cells on the last image by the number of cells on the first image. The ratio […], was further calculated thereby obtaining a value that describes the effect of compounds of the present invention on the overall cell growth.

A549 = experiment: MTT test, overall cell growth, A549; assay type: cell-based, human; conditions: read-out: IC50 A549
Experimental: (§2) MTT tests were performed in order to rapidly, i.e. within 5 days, measure the effect of compounds of this invention on the overall cell growth. […] The amount of formazan obtained at the end of the experiment, measured by means of a spectrophotometer, is directly proportional to the number of living cells. Optical density determination thus enabled a quantitative measurement of the effect of the investigated compounds as compared to the control condition (untreated cells) and/or to other reference compounds. Six human cancer cell lines described in Table 5 were used in the following MTT tests. These cancer cell lines cover six histological cancer types, being prostate, glioma, pancreas, colon, lung, and breast cancers. To perform the assay, cells were allowed to grow in 96-well micro-wells with a flat bottom with an amount of 100 μl of cell suspension per well with 1,000 to 4,000 cells/well depending on the cell type used. Each cell line was seeded in its appropriate culture medium. […] Each experiment was performed in sextaplicates. […] The micro-wells were subsequently incubated during 3 hours at 37° C. and centrifuged at 400 g during 10 minutes. MTT was removed and formazan crystals formed were dissolved in 100 μl DMSO. The micro-wells were shaken for 5 minutes and read on a spectrophotometer at wavelengths of 570 nm (maximal formazan absorbance). For each experimental condition, the mean optical density was calculated, allowing the determination of the percentage of remaining living cells in comparison to the control.

U-373MG = experiment: MTT test, overall cell growth, U-373MG; assay type: cell-based, human; conditions: read-out: IC50 U-373MG
Experimental: as §2

BxPC3 = experiment: MTT test, overall cell growth, BxPC3; assay type: cell-based, human; conditions: read-out: IC50 BxPC3
Experimental: as §2

[2] = tested on: isolated neutrophils stimulated by phorbol myristate acetate (PMA); experiment: MPO release by activated neutrophils (ELISA); assay type: cell-based; conditions: FIG. 18
Experimental: (§3) The ROS production and the release of MPO by activated neutrophils were measured by chemiluminescence and ELISA techniques, respectively (Franck et al., 2008, Physiol. Res. 57(4):577-87). The activity of purified MPO was measured by using an original method called […] (specific immune extraction followed by enzymatic detection) allowing the study of drug interaction with the enzyme without interferences of the medium (Franck et al., 2006, J Vet Diagn Invest, 18(4):326-34).

MCF-7 = experiment: MTT test, overall cell growth, MCF-7; assay type: cell-based, human; conditions: read-out: IC50 MCF-7
Experimental: as §2

PC3 [3] = experiment: MTT test, overall cell growth, PC3; assay type: cell-based, human; conditions: read-out: IC50 PC3
Experimental: as §2

[4] = tested on: isolated neutrophils stimulated by phorbol myristate acetate (PMA); experiment: ROS production by PMA-stimulated isolated neutrophils (chemiluminescence); assay type: cell-based; conditions: FIG. 16
Experimental: as §3

LoVo = experiment: MTT test, overall cell growth, LoVo; assay type: cell-based, human; conditions: read-out: IC50 LoVo
Experimental: as §2

U-373 MG = experiment: Cellular imaging (phase-contrast videomicroscopy), U-373 MG; assay type: cell-based, human; conditions: 10 μM, 72 h, global growth ratio
Experimental: as §1

purified MPO = experiment: Activity of purified MPO (SIEFED); assay type: biochemical; conditions: FIG. 17
Experimental: as §3

physchem = conditions: aqueous with cosolvent or surfactant or cyclodextrin
[5] = Solubilities in water (20° C.); assay type: physicochemical
Text: The compound according to the invention allows therefore to increase the solubility of curcumin derivatives in aqueous solutions which in turn enables IV administrations and/or increases their bioavailability. The table below presents the solubilities of the various intermediates.

[6] = tested on: SC-VII mouse head and neck cancer cells; experiment: SC-VII mouse head and neck orthotopic cancer model, survival; assay type: in vivo; conditions: IP, NDS27 20 mg/kg 3 times per day, 5 days per week, 3 weeks, cisplatin 5 mg/kg 1 time per week, control vehicle
Experimental: To test the in vivo anti-cancer activity of the compound according to the invention, we made use of the SC-VII mouse head and neck orthotopic cancer model. SC-VII mouse head and neck cancer cells were cultivated in conventional culture medium containing supplementation in foetal calf serum and antibiotics (penicillin/streptomycin and gentamycin). 500 000 cancer cells were grafted in a serum free culture medium (50 μl) into the floor of the mouth of each mouse. 5 days after the graft, the 44 animals were divided into four groups of 11 mice. The treatments were as follows: • Group 1: mice treated with the vehicle alone (HP-beta-CD—L-Lysine solution) • Group 2: mice treated with cisplatin administered IP at the dosis of 5 mg/kg, 1 time per week during 3 weeks • Group 3: mice treated IP with the NDS27 compound according to the invention administered 3 times per day, 5 days per week during 3 weeks at the doses of 20 mg/kg • Group 4: mice treated with a combination of both treatments described for groups 2 and 3.
Mice were sacrificed when they lost 20% of their weight or when tumour reached 500 mm^2. Survival of the animals was followed and is illustrated in FIG. 8.

[7] = Influence of different cyclodextrins on curcumin solubility; assay type: physicochemical; conditions: FIGS. 11a and 11b

Molecule: Curcumin Lysinate
- GGRtreated/GGRcontrol (PC3 [1]): 0.4
- effect on cell migration (PC3 [1]; filmed 72 h): ++
- effect on cell morphology (PC3 [1]; filmed 72 h): ++
- IC50 (A549; MTT, 72 hours, lung cancer cell line): > 10 µM
- IC50 (U-373MG; MTT, 72 hours, glioma cell line): 10 µM
- IC50 (BxPC3; MTT, 72 hours, pancreas cancer cell line): > 10 µM
- effect on MPO release by activated neutrophils [2]: dose-dependent inhibitory effects
- IC50 (MCF-7; MTT, 72 hours, breast cancer cell line): > 10 µM
- IC50 (PC3 [3]; MTT, 72 hours, prostate cancer cell line): > 10 µM
- inhibitory effect on ROS production / release [4]: dose-dependent inhibitory effects
- IC50 (LoVo; MTT, 72 hours, colon cancer cell line): > 10 µM
- GGRtreated/GGRcontrol (U-373 MG): 0.2
- inhibitory effect on purified MPO activity (purified MPO): dose-dependent inhibitory effects

- IC50 (A549; Homo sapiens, A549, MTT, 72 hours, lung cancer cell line): > 10 µM
- solubility (physchem): ≤ 100 mM
- IC50 (BxPC3; Homo sapiens, BXPC-3, MTT, 72 hours, pancreas cancer cell line): 9.5 µM
- IC50 (MCF-7; Homo sapiens, MCF7, MTT, 72 hours, breast cancer cell line): > 10 µM
- IC50 (PC3 [3]; Homo sapiens, PC-3, MTT, 72 hours, prostate cancer cell line): > 10 µM
- IC50 (LoVo; Homo sapiens, LoVo, MTT, 72 hours, colon cancer cell line): 9.3 µM
- solubility ([5]; Water (20° C.), read-out: solubility): ~0.0003 mg/mL (≈ 0.000814 mM)
Molecule: COc1cc(/C=C/C(=O)CC(=O)/C=C/c2ccc(O)c(OC)c2)ccc1O [curcumin]
- GGRtreated/GGRcontrol (PC3 [1]): 0.5
- effect on cell morphology (PC3 [1]; filmed 72 h): +
- IC50 (U-373MG; Homo sapiens, U373 MG, MTT, 72 hours, glioma cell line): 8.1 µM
- effect on MPO release by activated neutrophils [2]: dose-dependent inhibitory effects
- inhibitory effect on ROS production / release [4]: dose-dependent inhibitory effects
- GGRtreated/GGRcontrol (U-373 MG): 0.2
- inhibitory effect on purified MPO activity (purified MPO): dose-dependent inhibitory effects

Molecule: NCCCC[C@H](N)C(=O)O [Lysine]
- solubility ([5]; 20 °C, water): 640 mg/mL (≈ 4380 mM)

- solubility [5]: 10 mg/mL
Molecule: hydroxypropyl-beta-cyclodextrin complex of curcumin lysinate [NDS27]

Molecule: COc1cc(CCC(=O)CC(=O)CCc2ccc(O)c(OC)c2)ccc1O [Tetrahydrocurcumin, tetrahydrocurcumin]
- IC50 (A549; Homo sapiens, A549, 72 h): > 10 µM
- IC50 (U-373MG; Homo sapiens, U373 MG, 72 h): > 10 µM
- IC50 (BxPC3; Homo sapiens, BXPC-3, 72 h): > 10 µM
- IC50 (MCF-7; Homo sapiens, MCF7, 72 h): > 10 µM
- IC50 (PC3 [3]; Homo sapiens, PC-3, 72 h): > 10 µM
- IC50 (LoVo; Homo sapiens, LoVo, 72 h): > 10 µM

Molecule: N.N.[Cl][Pt][Cl] [cisplatin]
- T/C index (ratio of median survival of treated mice to control group) [6]: 163%

- solubility [5]: 500 mg/mL (≈ 324 mM)
Molecule: CC(O)COC[C@H]1O[C@@H]2O[C@H]3[C@H](O)[C@@H](O)[C@@H](O[C@H]4[C@H](O)[C@@H](O)[C@@H](O[C@H]5[C@H](O)[C@@H](O)[C@@H](O[C@H]6[C@H](O)[C@@H](O)[C@@H](O[C@H]7[C@H](O)[C@@H](O)[C@@H](O[C@H]8[C@H](O)[C@@H](O)[C@@H](O[C@H]1[C@H](O)[C@H]2O)O[C@@H]8COCC(C)O)O[C@@H]7COCC(C)O)O[C@@H]6COCC(C)O)O[C@@H]5COCC(C)O)O[C@@H]4COCC(C)O)O[C@@H]3COCC(C)O (stereo partly drawn) [HP-beta-CD, hydroxypropyl-beta-cyclodextrin]
- effect of the cyclodextrin on curcumin solubility [7]: clearly increase the solubility of curcumin
